Experimental data reported in ChEMBL document CHEMBL1201862, “PubChem BioAssay data set” (2004).
Active and inactive are the calls of the source. Rule as the data show it, for most assays here: actives have a measured EC50 and inactives only a lower limit.

Columns and labels:
[1] = biological target: Luciferin 4-monooxygenase (Photinus pyralis, UniProt P08659); assay: Counter Screen for Luciferase-based Assay Positives. [Related pubchem assays: 620, 618, 411 ]
[2] = biological target: T1, DNA repair and recombination protein RAD54-like (Homo sapiens, UniProt Q92698); assay: inhibitors of human RAD54 branch migration, confirmation, biochemical, fluorescence, cherry-picked samples, dose series (AID 651657); format: functional
T1 sequence (Q92698 whole entry): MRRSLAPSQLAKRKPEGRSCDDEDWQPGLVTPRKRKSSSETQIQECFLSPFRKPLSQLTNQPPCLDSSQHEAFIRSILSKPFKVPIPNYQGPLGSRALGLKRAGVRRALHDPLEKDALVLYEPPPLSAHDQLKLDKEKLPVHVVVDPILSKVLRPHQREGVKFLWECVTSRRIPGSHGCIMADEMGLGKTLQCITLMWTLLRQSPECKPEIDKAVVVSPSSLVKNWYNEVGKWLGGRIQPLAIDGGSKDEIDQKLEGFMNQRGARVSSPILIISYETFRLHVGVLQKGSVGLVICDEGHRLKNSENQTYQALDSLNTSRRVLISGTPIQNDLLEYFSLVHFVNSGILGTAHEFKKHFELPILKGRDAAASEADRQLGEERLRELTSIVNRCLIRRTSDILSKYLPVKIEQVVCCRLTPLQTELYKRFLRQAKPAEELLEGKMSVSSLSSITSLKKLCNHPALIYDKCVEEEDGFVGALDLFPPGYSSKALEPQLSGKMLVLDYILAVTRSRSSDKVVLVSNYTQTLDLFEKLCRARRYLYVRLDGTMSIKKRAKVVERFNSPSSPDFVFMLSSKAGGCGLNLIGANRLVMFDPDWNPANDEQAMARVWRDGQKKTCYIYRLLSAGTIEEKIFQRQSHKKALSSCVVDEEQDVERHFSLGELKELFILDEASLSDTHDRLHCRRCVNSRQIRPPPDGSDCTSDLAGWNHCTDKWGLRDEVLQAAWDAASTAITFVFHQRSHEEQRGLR

[3] = NIH-3T3 fibroblast cytotoxicity, dose response, cytotoxicity control, cell-based, fluorescence, Alamar Blue, secondary assay (AID 2327); format: functional;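 also: NIH-3T3 mouse fibroblasts cultured with fluconazole at 8 µg/mL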
[4] = inhibitors of firefly luciferase expression or activity, dose response, H4 neuroglioma cells, luminescence (AID 1990); format: functional, cell-based
[5] = luciferase reporter signal reduction – luminescence, H4-C neuroglioblastoma cells, dose response (AID 2458); format: functional, cell-based;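 also: H4 neuroglioblastoma cells stably carrying a luciferase reporter gene fusion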
HEK293 [6] = assay: NOD1 signaling inhibitors, primary screen, cell-based, luminescence, uHTS (AID 1578); format: functional; details: Homo sapiens
BJ [7] = assay: cytotoxicity toward BJ-TERT fibroblasts, dose response, cell-based, RAS-independent, luminescence (AID 1933); format: functional; details: Homo sapiens
HEK293 [8] = assay: cells; format: functional, cell-based; details: Homo sapiens
cells = format: functional, cell-based
[9] = Luminescence Cell-Based Dose Response HTS to Identify Inhibitors of 5'UTR Stem-Loop Driven Prion Protein mRNA Translation in H4 Neuroglioblastoma Cells. [Related pubchem assays: 1827 (Project Summary), 1813 (Primary HTS)]; format: functional
[10] = inhibitors of SNCA 5'UTR-driven reporter translation, confirmation, H4 neuroglioma cells, luminescence (AID 1988); format: functional, cell-based
BJ [11] = assay: cells; format: functional, cell-based; details: Homo sapiens
[12] = C. albicans growth with fluconazole, confirmation, fluorescence, retest (AID 2467); format: functional, cell-based
HEK293 [13] = assay: cells; format: functional, cell-based; details: Homo sapiens; remark: listed apart in the source
[14] = biological target: Nucleotide-binding oligomerization domain-containing protein 2 (Homo sapiens, UniProt Q9HC29); assay: NOD2 signaling inhibitors, cell-based, luminescence, uHTS, HEK293 (AID 1566); format: functional
HEK293 [15] = assay: NOD2 signaling inhibitors in MDP-stimulated cells, cell-based, uHTS, luminescence (AID 2001); format: functional; details: Homo sapiens
HEK293 [16] = assay: cells; format: functional, cell-based; details: Homo sapiens; remark: listed apart in the source
[17] = biological target: T2, Serine/threonine-protein phosphatase (Candida dubliniensis (strain CD36 / CBS 7987 / NCPF 3949 / NRRLY-17841) (Yeast), UniProt B9W6M3); assay: calcineurin pathway inhibitors in yeast reporter, dose response, S. cerevisiae, CDRE-lacZ, luminescence, secondary (AID 2388); format: functional, cell-based;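 also: yeast reporter cells carrying a calcineurin-responsive lacZ construct stimulated with calcium chloride; luminescent beta-galactosidase reporter signal in whole cells rather than isolated phosphatase activity; potency for inhibition where a drop in reporter signal means calcineurin blockade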
T2 sequence (B9W6M3 whole entry): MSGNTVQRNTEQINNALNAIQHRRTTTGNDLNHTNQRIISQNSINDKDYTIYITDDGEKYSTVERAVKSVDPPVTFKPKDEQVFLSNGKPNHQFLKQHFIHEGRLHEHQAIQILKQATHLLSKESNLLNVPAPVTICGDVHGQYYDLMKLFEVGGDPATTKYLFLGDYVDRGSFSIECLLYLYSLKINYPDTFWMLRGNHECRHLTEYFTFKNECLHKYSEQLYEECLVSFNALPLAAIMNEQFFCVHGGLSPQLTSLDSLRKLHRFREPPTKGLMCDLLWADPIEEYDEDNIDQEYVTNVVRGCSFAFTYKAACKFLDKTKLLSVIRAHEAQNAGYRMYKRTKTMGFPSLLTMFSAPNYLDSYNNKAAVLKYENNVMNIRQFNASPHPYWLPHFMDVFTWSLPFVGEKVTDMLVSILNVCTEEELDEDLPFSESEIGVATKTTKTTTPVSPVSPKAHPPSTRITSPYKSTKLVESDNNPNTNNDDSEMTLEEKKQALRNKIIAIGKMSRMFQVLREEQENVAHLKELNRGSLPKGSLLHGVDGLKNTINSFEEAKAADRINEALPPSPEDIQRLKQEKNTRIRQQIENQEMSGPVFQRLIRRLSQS

BJ [18] = assay: cytotoxicity toward BJ-TERT-LT-ST fibroblasts, dose response, cell-based, RAS-independent, luminescence (AID 1935); format: functional; details: Homo sapiens;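 also: BJ fibroblasts immortalized with TERT plus LT and ST oncogenes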
[19] = cytotoxicity toward DRD oncogenic fibroblasts, dose response, cell-based, non-viral oncogenic, luminescence (AID 1934); format: functional; details: Homo sapiens
[20] = inhibitors of SNCA 5'UTR-driven translation, confirmation, luminescence, H4 neuroglioblastoma cells, dose confirmation (AID 2454); format: functional, cell-based;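 also: H4 neuroglioblastoma cells carrying an alpha-synuclein 5'UTR luciferase reporter; potency for inhibition of the luciferase signal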
BJ [21] = assay: cytotoxicity toward Ras-transformed BJeLR fibroblasts, dose response, cell-based, alamar blue fluorescence, cherrypicked samples (AID 2631); format: functional; details: Homo sapiens;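 also: confirmatory dose-response assay in RAS-dependent BJ fibroblasts engineered with TERT, LT and ST, with cytotoxicity read by fluorescence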
[22] = biological target: ATP-dependent molecular chaperone HSP82 (Candida albicans (strain WO-1) (Yeast), UniProt C4YTQ8); assay: loss of DOC-induced GRE-beta-galactosidase reporter signal, dose response, Hsp90 inhibitor project, S. cerevisiae, luminescence (AID 2400); format: functional, cell-based;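 also: beta-galactosidase luminescence from glucocorticoid response element reporter as proxy for Hsp90 function; inhibitor potency where signal loss means Hsp90 inhibition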
Sequence of ATP-dependent molecular chaperone HSP82 (C4YTQ8 whole entry): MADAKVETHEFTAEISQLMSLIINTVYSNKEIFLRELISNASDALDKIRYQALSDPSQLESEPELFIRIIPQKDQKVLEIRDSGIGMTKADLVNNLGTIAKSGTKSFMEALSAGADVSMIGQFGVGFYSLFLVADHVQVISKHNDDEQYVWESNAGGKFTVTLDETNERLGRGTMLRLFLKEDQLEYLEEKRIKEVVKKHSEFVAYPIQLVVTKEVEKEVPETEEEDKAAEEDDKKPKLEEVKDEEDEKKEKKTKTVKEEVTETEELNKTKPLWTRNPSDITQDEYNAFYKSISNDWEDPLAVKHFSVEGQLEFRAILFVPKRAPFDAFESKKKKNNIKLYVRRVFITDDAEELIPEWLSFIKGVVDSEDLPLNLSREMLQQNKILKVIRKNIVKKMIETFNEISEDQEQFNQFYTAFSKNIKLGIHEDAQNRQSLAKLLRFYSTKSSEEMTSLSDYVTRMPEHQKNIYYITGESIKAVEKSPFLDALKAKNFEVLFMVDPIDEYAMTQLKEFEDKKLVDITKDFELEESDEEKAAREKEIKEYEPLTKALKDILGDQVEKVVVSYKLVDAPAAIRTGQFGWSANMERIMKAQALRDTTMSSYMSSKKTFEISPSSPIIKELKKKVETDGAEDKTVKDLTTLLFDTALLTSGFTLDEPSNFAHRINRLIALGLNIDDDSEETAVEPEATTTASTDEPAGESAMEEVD

Sequence of Luciferin 4-monooxygenase (P08659 whole entry): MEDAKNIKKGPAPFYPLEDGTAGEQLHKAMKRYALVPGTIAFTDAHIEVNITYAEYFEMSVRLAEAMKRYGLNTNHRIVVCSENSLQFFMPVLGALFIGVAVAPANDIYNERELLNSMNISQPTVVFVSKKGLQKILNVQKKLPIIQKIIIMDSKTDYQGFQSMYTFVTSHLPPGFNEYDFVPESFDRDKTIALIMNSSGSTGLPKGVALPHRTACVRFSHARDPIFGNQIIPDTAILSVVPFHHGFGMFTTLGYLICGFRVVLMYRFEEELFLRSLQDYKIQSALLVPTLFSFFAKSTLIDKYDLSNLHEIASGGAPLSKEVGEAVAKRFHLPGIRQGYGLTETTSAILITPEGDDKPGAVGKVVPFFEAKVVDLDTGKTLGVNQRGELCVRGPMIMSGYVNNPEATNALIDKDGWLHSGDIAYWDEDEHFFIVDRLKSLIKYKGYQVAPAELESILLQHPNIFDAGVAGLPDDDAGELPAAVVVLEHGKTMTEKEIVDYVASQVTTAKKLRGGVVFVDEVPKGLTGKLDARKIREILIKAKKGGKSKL
Sequence of Nucleotide-binding oligomerization domain-containing protein 2 (Q9HC29 whole entry, the tested form may be a part): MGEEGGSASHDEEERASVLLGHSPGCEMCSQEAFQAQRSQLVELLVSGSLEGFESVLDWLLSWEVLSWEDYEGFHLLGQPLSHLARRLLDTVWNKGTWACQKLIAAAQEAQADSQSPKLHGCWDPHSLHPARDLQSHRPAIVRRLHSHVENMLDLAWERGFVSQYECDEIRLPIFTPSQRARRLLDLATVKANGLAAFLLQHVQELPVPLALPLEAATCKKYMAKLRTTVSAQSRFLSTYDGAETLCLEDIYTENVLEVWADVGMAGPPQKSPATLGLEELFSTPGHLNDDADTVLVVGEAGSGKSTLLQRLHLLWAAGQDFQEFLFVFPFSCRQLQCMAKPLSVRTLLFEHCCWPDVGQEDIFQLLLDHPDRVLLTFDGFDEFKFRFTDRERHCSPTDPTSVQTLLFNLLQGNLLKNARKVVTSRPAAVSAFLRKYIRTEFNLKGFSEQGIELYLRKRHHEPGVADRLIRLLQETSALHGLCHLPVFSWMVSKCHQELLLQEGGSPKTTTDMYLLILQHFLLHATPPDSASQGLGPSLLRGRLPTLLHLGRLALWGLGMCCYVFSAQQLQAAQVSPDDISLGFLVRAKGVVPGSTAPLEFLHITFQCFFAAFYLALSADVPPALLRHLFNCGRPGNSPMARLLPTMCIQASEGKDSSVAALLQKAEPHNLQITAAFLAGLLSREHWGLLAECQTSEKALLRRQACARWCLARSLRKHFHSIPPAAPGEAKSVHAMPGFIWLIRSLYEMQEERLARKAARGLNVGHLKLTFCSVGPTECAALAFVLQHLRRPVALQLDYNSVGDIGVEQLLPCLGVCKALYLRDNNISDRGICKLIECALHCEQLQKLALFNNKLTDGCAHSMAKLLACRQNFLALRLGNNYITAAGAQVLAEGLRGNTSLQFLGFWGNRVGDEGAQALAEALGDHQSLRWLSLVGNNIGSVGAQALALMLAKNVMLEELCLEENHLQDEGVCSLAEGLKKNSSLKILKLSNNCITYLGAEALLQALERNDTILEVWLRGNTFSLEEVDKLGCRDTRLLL

COc1ccc2nc(-c3ccc(N)cc3)[nH]c2c1
active: EC50 [1] 0.38 µM | AC50 [2] 35.1 µM

COc1ccc(-c2nnc(NC(=O)c3ccc(S(=O)(=O)N4CCc5ccccc5C4)cc3)o2)cc1
inconclusive: EC50 (BJ [11]) 132 µM | EC50 (BJ [18]) > 150 µM
active: EC50 [4] < 0.1 µM | EC50 (BJ [7]) 92.6 µM | EC50 [9] < 0.1 µM | EC50 [10] 0.139 µM | EC50 [12] 0.256 µM | EC50 [19] 90.3 µM | EC50 (BJ [21]) 9.02 µM
inactive: EC50 [3] > 150 µM | EC50 (HEK293 [6]) > 20 µM | IC50 (HEK293 [8]) > 20 µM | IC50 (HEK293 [13]) > 20 µM | EC50 [14] > 20 µM | IC50 (HEK293 [15]) 19.6 µM | IC50 (HEK293 [16]) > 20 µM | EC50 [17] > 180 µM | EC50 [22] > 150 µM
> 12 µM (not active): EC50 [5] | EC50 (cells) | EC50 [20]
